Test results published in US9242970B2 (ACTELION PHARMACEUTICALS LTD., priority 2010, dated 2016).
Like-named read-outs stand apart in the source and are kept apart here.

Legend:
human orexin-1 receptor = human orexin-1 receptor (Homo sapiens (Human), UniProt O43613); assay: In vitro assay: intracellular calcium measurements (FLIPR), antagonistic activity; assay type: cell-based; details: CHO cells, 3 nM orexin-A, marked values are geometric means of n = 2-6, read-out: IC50 OX1
human orexin-2 receptor = human orexin-2 receptor (Homo sapiens (Human), UniProt O43614); assay: as above; assay type: cell-based; details: CHO cells, 3 nM orexin-A, marked values are geometric means of n = 2-6, read-out: IC50 OX2
[1] = compound incubation time of 10 min

human orexin-2 receptor, sequence (O43614 whole entry): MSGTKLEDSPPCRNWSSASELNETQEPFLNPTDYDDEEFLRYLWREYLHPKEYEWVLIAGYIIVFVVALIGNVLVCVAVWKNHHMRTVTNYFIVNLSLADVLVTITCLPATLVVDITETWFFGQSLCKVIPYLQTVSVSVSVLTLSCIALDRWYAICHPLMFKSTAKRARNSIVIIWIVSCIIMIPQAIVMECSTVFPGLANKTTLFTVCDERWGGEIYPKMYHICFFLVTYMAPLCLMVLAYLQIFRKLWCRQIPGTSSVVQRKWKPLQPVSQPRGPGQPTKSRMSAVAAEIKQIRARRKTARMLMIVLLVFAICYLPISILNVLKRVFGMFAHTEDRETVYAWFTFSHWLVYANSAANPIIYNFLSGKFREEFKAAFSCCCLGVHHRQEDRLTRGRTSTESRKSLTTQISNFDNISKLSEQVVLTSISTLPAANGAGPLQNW
human orexin-1 receptor, sequence (O43613 whole entry): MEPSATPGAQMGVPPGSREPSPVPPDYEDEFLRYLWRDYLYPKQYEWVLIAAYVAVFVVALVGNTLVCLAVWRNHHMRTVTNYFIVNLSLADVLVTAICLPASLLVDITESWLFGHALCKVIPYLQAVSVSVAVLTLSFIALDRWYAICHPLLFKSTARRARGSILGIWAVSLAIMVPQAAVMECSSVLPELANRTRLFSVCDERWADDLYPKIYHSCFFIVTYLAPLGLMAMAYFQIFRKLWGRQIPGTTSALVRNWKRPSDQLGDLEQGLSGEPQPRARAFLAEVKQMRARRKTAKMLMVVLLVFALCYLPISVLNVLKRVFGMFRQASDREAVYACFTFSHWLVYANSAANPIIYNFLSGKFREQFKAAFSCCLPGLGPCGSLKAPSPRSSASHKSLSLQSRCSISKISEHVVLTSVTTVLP

Structure (SMILES): COc1cccc(OC)c1C1CC(C)C(=O)N1Cc1ccnc(OC(F)F)c1 (stereo not shown) [Example 202, 1-((2-(difluoromethoxy)pyridin-4-yl)methyl)-5-(2,6-dimethoxyphenyl)-3-methylpyrrolidin-2-one]
- IC50 (human orexin-1 receptor; [1]): 224 nM
- IC50 (human orexin-2 receptor; [1]): 923 nM

Structure (SMILES): CCC(c1ccc(OC(F)(F)F)cc1)N1C(=O)C(C)CC1c1c(OC)cccc1OC (stereo not shown) [Example 203, 5-(2,6-dimethoxyphenyl)-3-methyl-1-(1-(4-(trifluoromethoxy)phenyl)propyl)pyrrolidin-2-one]
- IC50 (human orexin-1 receptor; [1]): 451 nM
- IC50 (human orexin-2 receptor; [1]): 1170 nM

Structure (SMILES): COc1cccc(OC)c1C1CC(C)C(=O)N1Cc1cc(OC(F)F)ccn1 (stereo not shown) [Example 204, 1-((4-(difluoromethoxy)pyridin-2-yl)methyl)-5-(2,6-dimethoxyphenyl)-3-methylpyrrolidin-2-one]
- IC50 (human orexin-1 receptor; [1]): 6380 nM
- IC50 (human orexin-2 receptor; [1]): 1260 nM

Structure (SMILES): CCOc1ccc(CN2C(=O)CCCC2c2c(OC)cccc2OC)cc1 (stereo not shown) [Example 205, 6-(2,6-dimethoxyphenyl)-1-(4-ethoxybenzyl)piperidin-2-one]
- IC50 (human orexin-1 receptor; [1]): 202 nM
- IC50 (human orexin-2 receptor; [1]): 65 nM

Structure (SMILES): COc1cccc(OC)c1C1CCCC(=O)N1Cc1ccc(OC(C)C)cc1 (stereo not shown) [Example 206, 6-(2,6-dimethoxyphenyl)-1-(4-isopropoxybenzyl)piperidin-2-one]
- IC50 (human orexin-1 receptor; [1]): 383 nM
- IC50 (human orexin-2 receptor; [1]): 16 nM

Structure (SMILES): CCCOc1ccc(CN2C(=O)CCCC2c2c(OC)cccc2OC)cc1 (stereo not shown) [Example 207, 6-(2,6-dimethoxyphenyl)-1-(4-propoxybenzyl)piperidin-2-one]
- IC50 (human orexin-1 receptor; [1]): 169 nM
- IC50 (human orexin-2 receptor; [1]): 35 nM

Structure (SMILES): COc1cccc(OC)c1C1CCCC(=O)N1Cc1ccc(OCC2CC2)cc1 (stereo not shown) [Example 208, 1-(4-(cyclopropylmethoxy)benzyl)-6-(2,6-dimethoxyphenyl)piperidin-2-one]
- IC50 (human orexin-1 receptor; [1]): 1110 nM
- IC50 (human orexin-2 receptor; [1]): 39 nM

Structure (SMILES): COc1cccc(OCCCO)c1C1CCCC(=O)N1Cc1ccc(OC(F)(F)F)cc1 (stereo not shown) [Example 209, 6-(2-(3-hydroxypropoxy)-6-methoxyphenyl)-1-(4-(trifluoromethoxy)benzyl)piperidin-2-one]
- IC50 (human orexin-1 receptor; [1]): 1060 nM
- IC50 (human orexin-2 receptor; [1]): 286 nM

Structure (SMILES): COc1cccc(OCC2CC2)c1C1CCCC(=O)N1Cc1ccc(OC(F)(F)F)cc1 (stereo not shown) [Example 210, 6-(2-(cyclopropylmethoxy)-6-methoxyphenyl)-1-(4-(trifluoromethoxy)benzyl)piperidin-2-one]
- IC50 (human orexin-1 receptor; [1]): 2550 nM
- IC50 (human orexin-2 receptor; [1]): 4140 nM

Structure (SMILES): COCCOc1cccc(OC)c1C1CCCC(=O)N1Cc1ccc(OC(F)(F)F)cc1 (stereo not shown) [Example 211, 6-(2-methoxy-6-(2-methoxyethoxy)phenyl)-1-(4-(trifluoromethoxy)benzyl)piperidin-2-one]
- IC50 (human orexin-1 receptor; [1]): 2780 nM
- IC50 (human orexin-2 receptor; [1]): 664 nM

Structure (SMILES): CCOc1cccc(OC)c1C1CCCC(=O)N1Cc1ccc(OC(F)(F)F)cc1 (stereo not shown) [Example 212, 6-(2-ethoxy-6-methoxyphenyl)-1-(4-(trifluoromethoxy)benzyl)piperidin-2-one]
- IC50 (human orexin-1 receptor; [1]): 216 nM
- IC50 (human orexin-2 receptor; [1]): 37 nM

Structure (SMILES): COc1cccc(OCCO)c1C1CCCC(=O)N1Cc1ccc(OC(F)(F)F)cc1 (stereo not shown) [Example 213, 6-(2-(2-hydroxyethoxy)-6-methoxyphenyl)-1-(4-(trifluoromethoxy)benzyl)piperidin-2-one]
- IC50 (human orexin-1 receptor; [1]): 1380 nM
- IC50 (human orexin-2 receptor; [1]): 85 nM

Structure (SMILES): COc1cccc(OCC(O)CO)c1C1CCCC(=O)N1Cc1ccc(OC(F)(F)F)cc1 (stereo not shown) [Example 214, 6-(2-(2,3-dihydroxypropoxy)-6-methoxyphenyl)-1-(4-(trifluoromethoxy)benzyl)piperidin-2-one]
- IC50 (human orexin-1 receptor; [1]): 3540 nM
- IC50 (human orexin-2 receptor; [1]): 735 nM

Structure (SMILES): COc1cccc(OC)c1C1CCC(C)(C)C(=O)N1Cc1ccc(OC(F)(F)F)cc1 (stereo not shown) [Example 215, 6-(2,6-dimethoxyphenyl)-3,3-dimethyl-1-(4-(trifluoromethoxy)benzyl)piperidin-2-one]
- IC50 (human orexin-1 receptor; [1]): 1410 nM
- IC50 (human orexin-2 receptor; [1]): 1290 nM

Structure (SMILES): COc1cccc(OC)c1C1CCC(C)C(=O)N1Cc1ccc(OC(F)(F)F)cc1 (stereo not shown) [Example 216, 6-(2,6-dimethoxyphenyl)-3-methyl-1-(4-(trifluoromethoxy)benzyl)piperidin-2-one]
- IC50 (human orexin-1 receptor; [1]): 40 nM
- IC50 (human orexin-2 receptor; [1]): 894 nM

Structure (SMILES): COc1cccc(OC)c1C1CC(C)(C)C(=O)N1Cc1ccc(OC(F)(F)F)cc1 (stereo not shown) [Example 217, 5-(2,6-dimethoxyphenyl)-3,3-dimethyl-1-(4-(trifluoromethoxy)benzyl)pyrrolidin-2-one]
- IC50 (human orexin-1 receptor; [1]): 22 nM
- IC50 (human orexin-2 receptor; [1]): 252 nM

Structure (SMILES): COc1cccc(OC)c1C1CCCC(=O)N1Cc1ccnc(-c2nccs2)c1 (stereo not shown) [Example 219, 6-(2,6-dimethoxyphenyl)-1-((2-(thiazol-2-yl)pyridin-4-yl)methyl)piperidin-2-one]
- IC50 (human orexin-1 receptor; compound incubation 120 min): 19 nM
- IC50 (human orexin-2 receptor; compound incubation 120 min): 9 nM

Structure (SMILES): COc1cccc(Cl)c1C1CCCC(=O)N1Cc1ccc(OC(F)(F)F)cc1 (stereo not shown) [Example 221, 6-(2-chloro-6-methoxyphenyl)-1-(4-(trifluoromethoxy)benzyl)piperidin-2-one]
- IC50 (human orexin-1 receptor; [1]): 4880 nM
- IC50 (human orexin-2 receptor; [1]): 154 nM

Structure (SMILES): COc1cccc(C)c1C1CCCC(=O)N1Cc1ccc(OC(F)(F)F)cc1 (stereo not shown) [Example 222, 6-(2-methoxy-6-methylphenyl)-1-(4-(trifluoromethoxy)benzyl)piperidin-2-one]
- IC50 (human orexin-1 receptor; [1]): 4380 nM
- IC50 (human orexin-2 receptor; [1]): 268 nM

Structure (SMILES): COc1cccc(C(F)(F)F)c1C1CCCC(=O)N1Cc1ccc(OC(F)(F)F)cc1 (stereo not shown) [Example 223, 6-(2-methoxy-6-(trifluoromethyl)phenyl)-1-(4-(trifluoromethoxy)benzyl)piperidin-2-one]
- IC50 (human orexin-1 receptor; [1]): > 21600 nM
- IC50 (human orexin-2 receptor; [1]): 2950 nM

Structure (SMILES): O=C1CCCC(c2c(F)cccc2F)N1Cc1ccc(OC(F)(F)F)cc1 (stereo not shown) [Example 224, 6-(2,6-difluorophenyl)-1-(4-(trifluoromethoxy)benzyl)piperidin-2-one]
- IC50 (human orexin-1 receptor; [1]): 3190 nM
- IC50 (human orexin-2 receptor; [1]): 2470 nM

Structure (SMILES): COc1cc(F)c(C2CCCC(=O)N2Cc2ccc(OC(F)(F)F)cc2)c(F)c1 (stereo not shown) [Example 225, 6-(2,6-difluoro-4-methoxyphenyl)-1-(4-(trifluoromethoxy)benzyl)piperidin-2-one]
- IC50 (human orexin-1 receptor; [1]): 4210 nM
- IC50 (human orexin-2 receptor; [1]): 5480 nM

Structure (SMILES): Cc1ccc(F)c(C2CCCC(=O)N2Cc2ccc(OC(F)(F)F)cc2)c1F (stereo not shown) [Example 226, 6-(2,6-difluoro-3-methylphenyl)-1-(4-(trifluoromethoxy)benzyl)piperidin-2-one]
- IC50 (human orexin-1 receptor; [1]): 5180 nM
- IC50 (human orexin-2 receptor; [1]): 2440 nM

Structure (SMILES): O=C1CCCC(c2c(F)cccc2C(F)(F)F)N1Cc1ccc(OC(F)(F)F)cc1 (stereo not shown) [Example 227, 6-(2-fluoro-6-(trifluoromethyl)phenyl)-1-(4-(trifluoromethoxy)benzyl)piperidin-2-one]
- IC50 (human orexin-1 receptor; [1]): 3500 nM
- IC50 (human orexin-2 receptor; [1]): 5900 nM

Structure (SMILES): O=C1CCCC(c2c(Cl)cccc2Cl)N1Cc1ccc(OC(F)(F)F)cc1 (stereo not shown) [Example 228, 6-(2,6-dichlorophenyl)-1-(4-(trifluoromethoxy)benzyl)piperidin-2-one]
- IC50 (human orexin-1 receptor; [1]): 2970 nM
- IC50 (human orexin-2 receptor; [1]): 456 nM

Structure (SMILES): O=C1CCCC(c2c(F)cccc2Cl)N1Cc1ccc(OC(F)(F)F)cc1 (stereo not shown) [Example 229, 6-(2-chloro-6-fluorophenyl)-1-(4-(trifluoromethoxy)benzyl)piperidin-2-one]
- IC50 (human orexin-1 receptor; [1]): 2920 nM
- IC50 (human orexin-2 receptor; [1]): 1190 nM

Structure (SMILES): COc1cccc(OC(C)C)c1C1CCCC(=O)N1Cc1ccc(OC(F)(F)F)cc1 (stereo not shown) [Example 230, 6-(2-isopropoxy-6-methoxyphenyl)-1-(4-(trifluoromethoxy)benzyl)piperidin-2-one]
- IC50 (human orexin-1 receptor; [1]): 363 nM
- IC50 (human orexin-2 receptor; [1]): 85 nM

Structure (SMILES): COc1cc(F)cc(OC)c1C1CCCC(=O)N1Cc1ccc(OC(F)(F)F)cc1 (stereo not shown) [Example 232, 6-(4-fluoro-2,6-dimethoxyphenyl)-1-(4-(trifluoromethoxy)benzyl)piperidin-2-one]
- IC50 (human orexin-1 receptor; [1]): 270 nM
- IC50 (human orexin-2 receptor; [1]): 27 nM

Structure (SMILES): COc1cc(C)cc(OC)c1C1CCCC(=O)N1Cc1ccc(OC(F)(F)F)cc1 (stereo not shown) [Example 233, 6-(2,6-dimethoxy-4-methylphenyl)-1-(4-(trifluoromethoxy)benzyl)piperidin-2-one]
- IC50 (human orexin-1 receptor; [1]): 400 nM
- IC50 (human orexin-2 receptor; [1]): 107 nM

Structure (SMILES): COc1cc(F)cc(OC)c1C1CCCC(=O)N1Cc1cccc(-c2ccccc2)c1 (stereo not shown) [Example 234, 1-([1,1′-biphenyl]-3-ylmethyl)-6-(4-fluoro-2,6-dimethoxyphenyl)piperidin-2-one]
- IC50 (human orexin-1 receptor; compound incubation 120 min): 262 nM
- IC50 (human orexin-2 receptor; compound incubation 120 min): 232 nM

Structure (SMILES): COc1ccc2c(C)noc2c1C1CCCC(=O)N1Cc1cccc(-c2ccccc2)c1 (stereo not shown) [Example 235, 1-([1,1′-biphenyl]-3-ylmethyl)-6-(6-methoxy-3-methylbenzo[d]isoxazol-7-yl)piperidin-2-one]
- IC50 (human orexin-1 receptor; compound incubation 120 min): 288 nM
- IC50 (human orexin-2 receptor; compound incubation 120 min): 194 nM

Structure (SMILES): COc1ccccc1C1CCCC(=O)N1Cc1ccc2ccccc2c1 (stereo not shown) [Example 236, 6-(2-methoxyphenyl)-1-(naphthalen-2-ylmethyl)piperidin-2-one]
- IC50 (human orexin-1 receptor; [1]): 1770 nM
- IC50 (human orexin-2 receptor; [1]): 369 nM

Structure (SMILES): COc1ccccc1C1CCCC(=O)N1Cc1ccc(OC(F)(F)F)cc1 (stereo not shown) [Example 237, 6-(2-methoxyphenyl)-1-(4-(trifluoromethoxy)benzyl)piperidin-2-one]
- IC50 (human orexin-1 receptor; [1]): 3490 nM
- IC50 (human orexin-2 receptor; [1]): 635 nM

Structure (SMILES): COc1cccc(OC)c1C1CCCC(=O)N1Cc1ccc2ccccc2c1 (stereo not shown) [Example 238, 6-(2,6-dimethoxyphenyl)-1-(naphthalen-2-ylmethyl)piperidin-2-one]
- IC50 (human orexin-1 receptor; [1]): 77 nM
- IC50 (human orexin-2 receptor; [1]): 47 nM

Structure (SMILES): O=C1CCCC(c2ccccc2C(F)(F)F)N1Cc1ccc2ccccc2c1 (stereo not shown) [Example 239, 1-(naphthalen-2-ylmethyl)-6-(2-(trifluoromethyl)phenyl)piperidin-2-one]
- IC50 (human orexin-1 receptor; [1]): 6420 nM
- IC50 (human orexin-2 receptor; [1]): 3580 nM

Structure (SMILES): COc1cccc(OC)c1C1CCCC(=O)N1Cc1ccc2c(c1)CCCN2 (stereo not shown) [Example 240, 6-(2,6-dimethoxyphenyl)-1-((1,2,3,4-tetrahydroquinolin-6-yl)methyl)piperidin-2-one]
- IC50 (human orexin-1 receptor; [1]): 2040 nM
- IC50 (human orexin-2 receptor; [1]): 596 nM

Structure (SMILES): COc1cccc(OC)c1C1CCCC(=O)N1Cc1ccc2c(ccn2C)c1 (stereo not shown) [Example 241, 6-(2,6-dimethoxyphenyl)-1-((1-methyl-1H-indol-5-yl)methyl)piperidin-2-one]
- IC50 (human orexin-1 receptor; [1]): 426 nM
- IC50 (human orexin-2 receptor; [1]): 275 nM

Structure (SMILES): COc1cccc(OC)c1C1CCCC(=O)N1Cc1cn2ccccc2n1 (stereo not shown) [Example 242, 6-(2,6-dimethoxyphenyl)-1-(imidazo[1,2-a]pyridin-2-ylmethyl)piperidin-2-one]
- IC50 (human orexin-1 receptor; [1]): 17700 nM
- IC50 (human orexin-2 receptor; [1]): 1390 nM
